The target in the assay is hENPP2 (UniProtKB/SwissProt Sequence ref Q13822) (Homo sapiens (Human), UniProt Q13822). The experiment in a line: LPC hENPP2 assay (choline release, LPC as substrate). The class given is biochemical. On the procedure:
The principle of the assay consists in quantifying the released choline with an enzymatic method using choline oxidase and peroxidase. Choline oxydation by choline oxydase releases betaine and peroxide. The latter is quantified in presence of HRP that converts the peroxide detection agent TOOS and 4-aminoantipyrine into quinoneimine dye. The appearance of quinoneimine dye is measured spectrophotometrically at 555 nm and is proportional to the amount of choline released by ENPP2. Inhibition of ENPP2 will result in a decrease of the signal.
The reaction is terminated and choline quantified by the addition of a 25 μL of a mixture containing 0.6 U/mL of choline oxidase, 0.6 U/mL of peroxydase, 1.8 mM TOOS, 1.2 mM amino-antipyrine, 20 mM EGTA (stop-developer solution) diluted in the buffer described above. […] is read on the Envision after an incubation of 30 min at room temperature (Excitation 555 nm, excitation light=70%).

pIC50: −log10 of the molar value.

A word on the pIC50: it is the negative decadic logarithm of the IC50, by convention in mol/L. High values mean a small IC50, low ones a large IC50. `CCc1nc2ccc(N3CCN(CC4CNC(=O)O4)CC3)nn2c1N(C)c1nc(-c2ccc(F)cc2)c(C#N)s1` (centres unmarked) [Cpd 160, 2-((2-ethyl-6-(4-((2-oxooxazolidin-5-yl)methyl)piperazin-1-yl)imidazo[1,2-b]pyridazin-3-yl)(methyl)amino)-4-(4-fluorophenyl) thiazole-5-carbonitrile]: the pIC50 was 7.00 to 11.00.
The figure for `CCc1nc2ccc(N3CC(NS(C)(=O)=O)C3)nn2c1N(C)c1nc(-c2ccc(F)cc2)cs1` [Cpd 158, N-(1-(2-ethyl-3-((4-(4-fluorophenyl)thiazol-2-yl)(methyl)amino)imidazo[1,2-b]pyridazin-6-yl)azetidin-3-yl)methane-sulfonamide] is 6.00 to 6.30; for `CCc1nc2ccc(N3CC(NCC(=O)N4CC(O)C4)C3)nn2c1N(C)c1nc(-c2ccc(F)cc2)cs1` [Cpd 155, 2-(1-(2-ethyl-3-((4-(4-fluorophenyl)thiazol-2-yl)(methyl)amino)imidazo[1,2-b]pyridazin-6-yl)azetidin-3-ylamino)-1-(3-hydroxyazetidin-1-yl)ethanone] it is 6.30 to 7.00.
The figure for `CCc1nc2ccc(N3CCN(C4CCN(Cc5ccc(OC)cc5)C4=O)CC3)nn2c1N(C)c1nc(-c2ccc(F)cc2)cs1` (centres unmarked) [Cpd 70, 3-(4-(2-ethyl-3-((4-(4-fluorophenyl)thiazol-2-yl)(methyl)amino)imidazo[1,2-b]pyridazin-6-yl)piperazin-1-yl)-1-(4-methoxybenzyl) pyrrolidin-2-one] is 6.00 to 6.30; for `CCc1nc2ccc(N3C[C@H]4C[C@H]3CN4S(C)(=O)=O)nn2c1N(C)c1nc(-c2ccc(F)cc2)cs1` [Cpd 76, N-(2-ethyl-6-((1S,4R)-5-(methylsulfonyl)-2,5-diazabicyclo[2.2.1]heptan-2-yl)imidazo[1,2-b]pyridazin-3-yl)-4-(4-fluorophenyl)-N-methylthiazol-2-amine] it is below 6.00.
Next, `CCc1nc2cnc(N3CCNCC3)cn2c1N(C)c1nc(-c2ccc(F)cc2)c(C#N)s1` [Compound 1, 2-((2-ethyl-6-(piperazin-1-yl)imidazo[1,2-a]pyrazin-3-yl)(methyl)amino)-4-(4-fluorophenyl)thiazole-5-carbonitrile]: below 6.00.
Regarding `CCc1nc2ccc(N3CC[C@@H](NCC(=O)N(C)C)C3)nn2c1N(C)c1nc(-c2ccc(F)cc2)c(C#N)s1` [Cpd 177, (R)-2-(1(3-((5-cyano-4-(4-fluorophenyl)thiazol-2-yl)(methyl)amino)-2-ethylimidazo[1,2-b]pyridazin-6-yl)pyrrolidin-3-ylamino)-N,N-dimethylacetamide], the pIC50 was 7.00 to 11.00.
`CCc1nc2ccc(N3CCN(S(C)(=O)=O)[C@H](CO)C3)nn2c1N(C)c1nc(-c2ccc(F)cc2)c(CO)s1` [Cpd 68, (S)-(4-(2-ethyl-3-((4-(4-fluorophenyl)-5-(hydroxymethyl)thiazol-2-yl)(methyl)amino)imidazo[1,2-b]pyridazin-6-yl)-1-(methylsulfonyl)piperazin-2-yl)methanol] gave a pIC50 of 6.30 to 7.00.
The figure for `CCc1nc2ccc(N3CCC(O)C3)nn2c1N(C)c1nc(-c2ccc(F)cc2)c(CO)s1` (centres unmarked) [Cpd 185, 1-(2-ethyl-3-((4-(4-fluorophenyl)-5-(hydroxymethyl)thiazol-2-yl)(methyl)amino)imidazo[1,2-b]pyridazin-6-yl)pyrrolidin-3-ol] is below 6.00.
Next, `CCc1nc2ccc(N3CC(NC(=O)OC(C)(C)C)C3)nn2c1N(C)c1nc(-c2ccc(F)cc2)c(C#N)s1` [Cpd 187, [1-(3-{[5-Cyano-4-(4-fluoro-phenyl)-thiazol-2-yl]-methyl-amino}-2-ethyl-imidazo[1,2-b]pyridazin-6-yl)-azetidin-3-yl]-carbamic acid tert-butyl ester]: 6.30 to 7.00; `CCc1nc2ccc(N3CCC(c4ccccc4)CC3)nn2c1N(C)c1nc(-c2ccc(F)cc2)cs1` [Cpd 113, N-(2-ethyl-6-(4-phenylpiperidin-1-yl)imidazo[1,2-b]pyridazin-3-yl)-4-(4-fluorophenyl)-N-methylthiazol-2-amine]: below 6.00.
In turn, `CCc1nc2ccc(N3CCN(C4COC4)CC3)nn2c1N(C)c1nc(-c2ccc(F)cc2)cs1` [Compound 38, N-(2-ethyl-6-(4-(oxetan-3-yl)piperazin-1-yl)imidazo[1,2-b]pyridazin-3-yl)-4-(4-fluorophenyl)-N-methylthiazol-2-amine] showed a pIC50 below 6.00.
The figure for `CCc1nc2ccc(N3CC[C@H](NCC(=O)N4CC(O)C4)C3)nn2c1N(C)c1nc(-c2ccc(F)cc2)c(C#N)s1` [Cpd 174, (S)-2-((2-ethyl-6-(3-(2-(3-hydroxyazetidin-1-yl)-2-oxoethylamino)pyrrolidin-1-yl)imidazo[1,2-b]pyridazin-3-yl)(methyl)amino)-4-(4-fluorophenyl) thiazole-5-carbonitrile] is 7.00 to 11.00; for `CCc1nc2ccc(N3CCCC(N4CCOCC4)C3)nn2c1N(C)c1nc(-c2ccc(F)cc2)cs1` (centres unmarked) [Cpd 110, N-(2-ethyl-6-(3-morpholino-piperidin-1-yl)imidazo[1,2-b]pyridazin-3-yl)-4-(4-fluorophenyl)-N-methylthiazol-2-amine] it is below 6.00; for `CCc1nc2ccc(C3CCNCC3)nn2c1N(C)c1nc(-c2ccc(F)cc2C#N)ns1` [Compound 219, 2-(5-((2-ethyl-6-(piperidin-4-yl)imidazo[1,2-b]pyridazin-3-yl)(methyl)amino)-1,2,4-thiadiazol-3-yl)-5-fluorobenzonitrile] it is below 6.00.
The figure for `CCc1nc2ccc(N3CC(NCC(=O)N4CC(O)C4)C3)nn2c1N(C)c1nc(-c2ccc(F)cc2)c(C#N)s1` [Cpd 189, 2-((2-ethyl-6-(3-(2-(3-hydroxyazetidin-1-yl)-2-oxoethylamino)azetidin-1-yl)imidazo[1,2-b]pyridazin-3-yl)(methyl)amino)-4-(4-fluorophenyl) thiazole-5-carbonitrile] is 7.00 to 11.00; for `CCc1nc2ccc(N3CC(N)C3)nn2c1N(C)c1nc(-c2ccc(F)cc2)c(C#N)s1` [Cpd 188, 2-((6-(3-aminoazetidin-1-yl)-2-ethylimidazo[1,2-b]pyridazin-3-yl)(methyl)amino)-4-(4-fluorophenyl) thiazole-5-carbonitrile] it is 7.00 to 11.00; for `CCc1nc2ccc(N3CCC4(CCOCC4)C3)nn2c1N(C)c1nc(-c2ccc(F)cc2)cs1` [Cpd 117, N-(2-ethyl-6-(8-oxa-2-azaspiro[4.5]decan-2-yl)imidazo[1,2-b]pyridazin-3-yl)-4-(4-fluorophenyl)-N-methylthiazol-2-amine] it is below 6.00.
Next, `CCc1nc2ccc(N3CCC4(CN(C)C(=O)O4)C3)nn2c1N(C)c1nc(-c2ccc(F)cc2)c(CO)s1` (centres unmarked) [Cpd 120, 7-(2-ethyl-3-((4-(4-fluorophenyl)-5-(hydroxymethyl)thiazol-2-yl)(methyl)amino)imidazo[1,2-b]pyridazin-6-yl)-3-methyl-1-oxa-3,7-diazaspiro[4.4] nonan-2-one]: 6.30 to 7.00; `CCc1nc2ccc(N3CC(C(=O)N4CCC(O)C4)C3)nn2c1N(C)c1nc(-c2ccc(F)cc2)cs1` (centres unmarked) [Cpd 159, (1-(2-ethyl-3-((4-(4-fluorophenyl)thiazol-2-yl)(methyl)amino)imidazo[1,2-b]pyridazin-6-yl)azetidin-3-yl)(3-hydroxypyrrolidin-1-yl)methanone]: below 6.00; `CCc1nc2ccc(N3CCC(NC(=O)C4(C)COC4)CC3)nn2c1N(C)c1nc(-c2ccc(F)cc2)cs1` [Cpd 86, N-(1-(2-ethyl-3-((4-(4-fluorophenyl)thiazol-2-yl)(methyl)amino)imidazo[1,2-b]pyridazin-6-yl)piperidin-4-yl)-3-methyloxetane-3-carboxamide]: below 6.00.
As to `CCc1nc2ccc(N3CCC(N4CCOCC4)C3)nn2c1N(C)c1nc(-c2ccc(F)cc2)c(CO)s1` (centres unmarked) [Cpd 148, (2-((2-ethyl-6-(3-morpholino-pyrrolidin-1-yl)imidazo[1,2-b]pyridazin-3-yl)(methyl)amino)-4-(4-fluorophenyl)thiazol-5-yl) methanol], the pIC50 was 6.00 to 6.30.
For `CCc1nc2ccc(N3CCC(NC(=O)CO)C3)nn2c1N(C)c1nc(-c2ccc(F)cc2)cs1` (centres unmarked) [Compound 136, N-(1-(2-ethyl-3-((4-(4-fluorophenyl)thiazol-2-yl)(methyl)amino)imidazo[1,2-b]pyridazin-6-yl)pyrrolidin-3-yl)-2-hydroxyacetamide], the negative-log IC50 (pIC50) is below 6.00.
Next, `CCc1nc2ccc(C3CCN(CC(=O)N(C)C)CC3)nn2c1N(C)c1nc(-c2ccc(F)cc2C#N)cs1` [Cpd 208, 2-(4-(3-((4-(2-cyano-4-fluorophenyl)thiazol-2-yl)(methyl)amino)-2-ethylimidazo[1,2-b]pyridazin-6-yl)piperidin-1-yl)-N,N-dimethylacetamide]: 6.30 to 7.00; `CCc1nc2ccc(N3CCC(CNC(=O)N(C)C)CC3)nn2c1N(C)c1nc(-c2ccc(F)cc2)cs1` [Cpd 106, 3-((l-(2-ethyl-3-((4-(4-fluorophenyl)thiazol-2-yl)(methyl)amino)imidazo[1,2-b]pyridazin-6-yl)piperidin-4-yl)methyl)-1,1-dimethylurea]: below 6.00.
Regarding `CCc1nc2cnc(N3CCN(CC(=O)N4CC(F)(F)C4)CC3)cn2c1N(C)c1nc(-c2ccc(F)cc2)c(C#N)s1` [Cpd 3, 2-((6-(4-(2-(3,3-difluoroazetidin-1-yl)-2-oxoethyl)piperazin-1-yl)-2-ethylimidazo[1,2-a]pyrazin-3-yl)(methyl)amino)-4-(4-fluorophenyl) thiazole-5-carbonitrile], the negative-log IC50 (pIC50) is below 6.00.
